One series deals with S. aureus SH1000. Nature of the series: microbe, parasite or virus in culture. The format is cell-based, Staphylococcus aureus. The settings on record: Staphylococcus aureus, SH1000, 24 h, caMHB, 24 h, read-out: MIC. From the text:
(§1) A range of Gram-positive and Gram-negative laboratory- and clinical-strain bacteria were used for the experiments. These included laboratory-strain methicillin-sensitive S. aureus (MSSA; including SH1000 and ATCC SA29213), laboratory-strain MRSA (ATCC MRSA43300), clinical-strain MRSA (MRSA-OS; an IK isolate), laboratory-strain methicillin-sensitive Staphylococcus epidermidis (MSSE; ATCC SE12228), laboratory invasive-strain P. aeruginosa (PAO1-L), and clinical cytotoxic-strain P. aeruginosa (PA-OS; an IK isolate).
(§2) In vitro antimicrobial efficacy of the antibiotics and designed HDPs was determined using an established MIC assay with broth microdilution method approved by the Clinical and Laboratory Standards Institute (CLSI)[64]. Briefly, the microorganisms were cultured on Tryptone Soya Agar (TSA) and incubated overnight for 18–21 h at 37 °C. Bacterial inoculums were subsequently prepared using the direct colony suspension method. Three to five bacterial colonies were obtained from the agar plate and inoculated into an Eppendorf tube containing 1 ml of cation-adjusted Muller-Hinton broth (caMHB), consisting of 20–25 mg/L calcium ions (Ca^2+) and 10–12.5 mg/L magnesium ions (Mg^2+). The bacterial suspension was adjusted to achieve a turbidity equivalent to 0.1 OD600 or 0.5 MacFarland, containing ~ 1.5 × 10^8 colony-forming unit (CFU)/ml, which was then further diluted in 1:150 in caMHB to reach a final bacterial concentration of ~ 1 × 10^6 colony forming units (CFU)/ml. Each treatment (peptide or antibiotic) was prepared in 1:2 serial dilution in 96-well polypropylene microplates (with a final treatment volume of 50 μl per well), followed by the addition of 50 μl of 1 × 10^6 CFU/ml bacteria into each well (with a final bacterial concentration of 5 × 10^5 CFU/ml).

The test system of the next series is MRSA-OS. Put plainly: microbe, parasite or virus in culture. The format is cell-based, Staphylococcus aureus. The settings on record: caMHB, 24 h.
Description: as §1, §2

For the next series, the system named is S. aureus ATCC SA29213. Nature of the series: Multipassage antimicrobial resistance (AMR) assay. The format is cell-based, Staphylococcus aureus. On the procedure:
Multipassage AMR assays were performed to evaluate the risk of development of AMR of S. aureus (ATCC SA29213) against CaD23 and amikacin over 10 consecutive passages (days). The assay was conducted in a similar manner of the MIC assay described above. […] This was then further diluted in 1:150 in caMHB to reach a final bacterial concentration of ~ 1 × 10^6 colony forming units (CFU)/ml. […] Development of AMR was defined as ≥ fourfold increase in the MIC level compared to the baseline.

Series [1] concerns human corneal epithelial cells (HCE-2). Nature of the series: in vitro. The format is cell-based. The settings on record: human, 3 h, 200 µg/ml. On the procedure: (§3) Cell viability and cytotoxicity of antibiotics and peptides were determined against human corneal epithelial cells (HCE-2, CRL-11135, ATCC, Manassas, Virginia, USA) using cell-counting-kit-8 (CCK-8) assay (Sigma Aldrich, Merck Life Science UK Limited, Dorset, UK) and lactate dehydrogenase (LDH) assay (ThermoFisher Scientific, UK), respectively, as per manufacturer’s guidelines. HCE-2 cells were cultured and seeded into a 96-well plate at a density of 7.5 × 10^3 cells/well and allowed to attach overnight and grew to 80–90% confluency in keratinocyte serum free medium (KSFM) supplemented with human recombinant epidermal growth factor, bovine pituitary extract, hydrocortisone, and insulin. Once the confluency reached 80–90%, the cells were incubated with treatment for 3 h before OD450 measurement was taken using BMG Clariostar microplate reader (BMG Labtech Ltd., Aylesbury, UK). Appropriate controls were used, including 0.1% Triton X-100 as positive control and KSFM as negative control. Cell viability was calculated using the following formula: [([…]) × 100; I = intensity] and cytotoxicity was calculated using the following formula: [((Itreatment – INC)/(IPC – INC)) × 100].

The next series is described as follows: in vitro. The format is cell-based, human. The settings on record: human. How it is done:
as §3

The test system of the next series is P. aeruginosa PA-OS. Nature of the series: microbe, parasite or virus in culture. The format is cell-based. The settings on record: Pseudomonas aeruginosa, 24 h, caMHB, read-out: MIC.
Description: as §1, §2

Another series relates to P. aeruginosa PAO1-L. Put plainly: microbe, parasite or virus in culture. Format: cell-based. The settings on record: Pseudomonas aeruginosa, PAO1, 24 h, caMHB, 24 h, read-out: MIC.
Description: as §1, §2

A short description of a further series: Hemolytic assay. The format is cell-based. The settings on record: human. How it is done: (§4) Ethical approval was obtained from the Local Research Ethics Committee of University of Nottingham prior to the experiment (Ref: 176-1812). The experiment was conducted in accordance with the relevant guidelines and regulations. Hemolytic assay was performed according to the previously established protocol. Briefly, 5 ml of fresh human blood was collected from healthy participants with written informed consent, in an EDTA tube and centrifuged for 10 min at 1300g at 10 °C for separation of plasma. The remaining erythrocytes were rinsed and centrifuged further three times in Ca^2+/Mg^2+ free Dulbecco’s phosphate-buffered saline (DPBS). Subsequently, erythrocytes were diluted to 8% v/v in DPBS and incubated with 100 μl of treatment, positive control (1% Triton X-100) and negative control (DPBS), all in 1:1 ratio, for 1 h (final erythrocytes concentration = 4% v/v). After 1 h of incubation, the plate was centrifuged at 500×g for 5 min and 100 μl of supernatant of each well was transferred into a 96-well plate for measurement at OD540. Hemolysis (%) was calculated as [(Itreatment – INC)/(IPC – INC)] × 100.

Another series relates to fresh human erythrocytes. Put plainly: Hemolytic assay. Format: cell-based. The settings on record: 1 h. How it is done: as §4
For another series, the system named is S. aureus (SH1000). Nature of the series: Time-kill kinetics assay. Format: cell-based, Staphylococcus aureus. On the procedure:
Time-kill kinetics assay was performed to determine the time-dependent and concentration-dependent in vitro antimicrobial effects of the CaD23 and amikacin, a commonly used topical antibiotics for BK, against 100 μl of ~ 1 × 10^6 CFU/ml of SH1000 (1:1 treatment-bacteria ratio) at various time points, including 0 min (pre-treatment), 15 min, 30 min, 60 min, 2 h, 4 h, and 24 h. At each time point, 10 μl of the treated bacteria was transferred to an Eppendorf tube containing 90 μl of PBS, which was then serially diluted in 1:10 concentration for inoculation on agar plates and incubated overnight for 18–21 h at 37 °C for enumeration of CFU.

Series [2] relates to human corneal epithelial cells (HCE-2). Put plainly: cells. The format is cell-based. The settings on record: 3 h; for IC50: Homo sapiens, Corneal epithelial cell, read-out: IC50 (concentration causing 50% inhibition of cell viability). How it is done: as §3
In a further series the test system is S. aureus ATCC 29213. Nature of the series: Murine S. aureus keratitis model (in vivo efficacy). On the set-up: species or system Staphylococcus aureus; C57BL/6J mice. The settings on record: levofloxacin 0.5%. How it is done: Based on the in vivo safety data, the highest tolerable concentration of CaD23, 500 μg/ml (0.05%), was used in the subsequent S. aureus keratitis murine model. Levofloxacin 0.5%, a commonly used antibiotic for BK in clinical setting, and PBS were used as the positive and negative controls, respectively.
All mice were randomly allocated to each treatment group (n = 5 mice/group). Slit-lamp examination was performed before the start of experiment to confirm the health of corneas. […] 10 μl of ~ 1 × 10^8 CFU/ml of ATCC SA29213 was applied topically onto the cornea and the lid was held shut for 1 min. […] The eyes were monitored daily using slit-lamp biomicroscopy and photography. Ocular clinical scoring was adapted from a previous method described by Clemens et al.[52] with minor modifications: (a) 0: Clear cornea or minimal opacity, partially covering the pupil; (b) + 1: Mild opacity, partially/fully covering the pupil; (c) + 2: Dense opacity, partially covering the pupil; (d) + 3: Dense opacity fully covering the pupil; and (e) + 4: Corneal perforation or phthisis.
At the end of day 3, all animals were sacrificed, and the infected eyes were enucleated. The whole corneas were subsequently dissected and homogenized in 1 ml of sterile PBS using sterile glass micro-beads. The homogenised infected corneal tissue suspension was serially diluted in 1:10 and plated on TSA plates in triplicates for enumeration of CFU after 24 h incubation at 37 °C.

Setting [3] is: Staphylococcus aureus, MRSA, 0 mM NaCl, read-out: MIC.

In general, CC50 refers to the concentration at which the toxic effect on the cells reaches its halfway point. Read a high CC50 as lower toxicity to the cells.

Several values for one entry are separate records, joined by “and”; a condition that tells them apart may be missing. Identical values can stand only once. Like-named read-outs stand apart in the source and are kept apart here.

For the molecule `NCC[C@H](O)C(=O)N[C@@H]1C[C@H](N)[C@@H](O[C@H]2O[C@H](CN)[C@@H](O)[C@H](O)[C@H]2O)[C@H](O)[C@H]1O[C@H]1O[C@H](CO)[C@@H](O)[C@H](N)[C@H]1O` [Amikacin, amikacin, reference compound], the MIC in the series with S. aureus SH1000 (0 mM NaCl) was 1.25 µg/mL and 2.13 µM; in the series with S. aureus SH1000 (150 mM NaCl) it was 2.5 µg/mL and 4.27 µM; with MRSA-OS (150 mM NaCl) it was 10 µg/mL; in the series on MRSA-OS (150 mM NaCl, read-out: MIC), 17.1 µM; with MRSA-OS (setting [3]), 10 µg/mL and 17.1 µM; with P. aeruginosa PA-OS (0 mM NaCl), 0.63 µg/mL and 1.08 µM. In addition, the MIC was 1.25 µg/mL and 2.13 µM in the series with P. aeruginosa PA-OS (150 mM NaCl); 0.63 µg/mL and 1.08 µM in the series on P. aeruginosa PAO1-L (0 mM NaCl); 1.25 µg/mL and 2.13 µM in the series on P. aeruginosa PAO1-L (150 mM NaCl). The “Increase in the MIC after the 2nd passage” value with S. aureus ATCC SA29213 (2nd passage) is reported as “fourfold”. Also, in the series with S. aureus ATCC SA29213 (10 consecutive passages (days)), the “Increase in the MIC after the 10th passage” value came to 32 fold. Besides, in the series on S. aureus ATCC SA29213 (AMR defined as ≥ fourfold increase in MIC vs baseline), the “Development of AMR after 10 consecutive passages” value is “developed significant AMR”. Further, in [1], the “Lmax (%): percentage of cytotoxicity at 200 µg/ml” value is reported as 0.0 (0.1) %. The molecule further registered a 50% cytotoxic concentration (CC50) at 3 h in the series “in vitro” above 200 µg/mL. Moreover, in “Hemolytic assay” (fresh human erythrocytes (4% v/v), human erythrocytes, 200 µg/ml, 1 h, mean (SD), read-out: Hmax (%): percentage of hemolysis at 200 µg/ml), the hemolysis at 1 h, 200 µg/ml came to 0%. Moreover, the “HC50 (concentration causing 50% hemolysis)” value in the series with fresh human erythrocytes was above 200 µg/mL. Further, the “Bacterial re-growth at 24 h time-point” value with S. aureus (SH1000) (CaD23 25 μg/ml, amikacin 10 μg/ml and 25 μg/ml) was “no evidence of bacterial re-growth”. Also, the “Time to complete killing” value is listed as at most 4 h in the series with S. aureus (SH1000) (amikacin 20 μg/ml (8× MIC), caMHB with 150 mM NaCl) and at most 4 h in the series on S. aureus (SH1000) (amikacin 8× MIC (10 μg/ml), caMHB). For the same molecule, the “Speed of killing relative to CaD23 (times slower)” value in the series on S. aureus (SH1000) (amikacin 25 μg/ml (20× MIC) vs CaD23 25 μg/ml (2× MIC)) is on record as 8 times. Moreover, the IC50 in series [2] is above 200 µg/mL.

`C[C@H]1COc2c(N3CCN(C)CC3)c(F)cc3c(=O)c(C(=O)O)cn1c23` [Levofloxacin, levofloxacin, reference compound]: the MIC with S. aureus SH1000 (0 mM NaCl) is 0.31 µg/mL and 0.86 µM; with S. aureus SH1000 (150 mM NaCl), 0.31 µg/mL and 0.86 µM; against MRSA-OS (150 mM NaCl), 0.31 µg/mL; in the series with MRSA-OS (150 mM NaCl, read-out: MIC) it was 0.86 µM; with MRSA-OS (setting [3]), 0.31 µg/mL and 0.86 µM; in the series on P. aeruginosa PA-OS (0 mM NaCl), 0.31 µg/mL and 0.86 µM. In addition, the MIC with P. aeruginosa PA-OS (150 mM NaCl) is 0.31 µg/mL and 0.86 µM; in the series with P. aeruginosa PAO1-L (0 mM NaCl) it was 0.31 µg/mL and 0.86 µM; in the series on P. aeruginosa PAO1-L (150 mM NaCl) it was 0.31 µg/mL and 0.86 µM. Moreover, the “Lmax (%): percentage of cytotoxicity at 200 µg/ml” value in series [1] was 1.2 (0.7) %. Further, the CC50 at 3 h in the series “in vitro” was above 200 µg/mL. Besides, the “S. aureus bacterial viability” value with S. aureus ATCC 29213 (CaD23 0.05%, after 3 days of treatment, median ± IQR) amounted to 2.4 ± 2.2 log10 CFU/ml. In addition, the “Reduction of S. aureus bacterial viability compared to PBS group” value with S. aureus ATCC 29213 (CaD23 0.05%, topical 4 times a day for 3 days, median) was 98%. The molecule further registered an Ocular clinical scoring with S. aureus ATCC 29213 (day 3 post-treatment, CaD23 0.05%, scale 0 to +4) of 1.0 ± 0.71. In addition, the “Median reduction in the bacterial bioburden compared to the PBS group” value with S. aureus ATCC 29213 is recorded as 1.8 logCFU. In addition, the hemolysis at 1 h, 200 µg/ml in the series “Hemolytic assay” (Hmax (%): percentage of hemolysis at 200 µg/ml) came out at 0%. Also, the “HC50 (concentration causing 50% hemolysis)” value in the series on fresh human erythrocytes was above 200 µg/mL. Moreover, the “Imax (%): percentage of inhibition of cell viability at 200 µg/ml” value in series [2] (HCE-2, CCK-8 assay, 200 µg/ml, mean (SD)) is listed as 108.0 (2.8) %. In addition, the IC50 in series [2] (HCE-2, CCK-8 assay, mean (SD)) was above 200 µg/mL.

(Values after PMC8443647, “Hybrid derivative of cathelicidin and human beta defensin-2 against Gram-positive bacteria: A novel approach for the treatment of bacterial keratitis” (Scientific Reports, 2021).)
